These results are taken from ChEMBL document CHEMBL4385648 (Bioorg Med Chem, 2019).

Test [1] can be described thus: Inhibition of Influenza A virus (A/Babol/36/2005 (H3N2) neuraminidase expressed by HEK293 cells incubated for 1 hr using 4-MU-NANA substrate by spectrofluorometric assay. In kind it is cell-based.
The next test addresses Neuraminidase (Influenza A virus, UniProt B4URF0). Put plainly: Inhibition of Influenza A virus (A/Anhui/1/2013 (H7N9) neuraminidase expressed by HEK293 cells incubated for 1 hr using 4-MU-NANA substrate by spectrofluorometric assay. In kind it is cell-based.

By IC50 is commonly meant the point on the concentration scale where inhibition reaches its midpoint. With `CCCC(=O)c1c(O)c(C=O)c(O)c(Cc2c(O)c(C=O)c(O)c(C(=O)CCC)c2O)c1O`, the results for the 50% inhibitory concentration (IC50) (in test [1] (read-out: IC50); at Neuraminidase (read-out: IC50)) were 9.8 µM and 2.5 µM, respectively. In the case of `CCCC(=O)c1c(O)c(CC2=C(O)C(C)(C)C(O)=C(C(C)=O)C2=O)c(O)c(Cc2c(O)c(CC3=C(O)C(C)(C)C(O)=C(C(C)=O)C3=O)c(O)c(C(=O)CCC)c2O)c1O`, the concentration for half-maximal inhibition (IC50) was determined as 36.1 µM in test [1] (read-out: IC50) and 3.6 µM at Neuraminidase (read-out: IC50). The like results for `CCCC(=O)c1c(O)cc(O)c(CC2=C(O)C(C)(C)C(O)=C(C(C)=O)C2=O)c1O` were, in that order, 5.6 µM and 1.6 µM.

Take `CCOC(=O)C1=C[C@@H](OC(CC)CC)[C@H](NC(C)=O)[C@@H](N)C1` [OSELTAMIVIR]: the IC50 in test [1] (read-out: IC50) came out at 0.1 µM. Take `CC(=O)C1=C(O)C(C)(C)C(O)=C(CC2=C(O)C(C)(C)C(O)=C(C(C)=O)C2=O)C1=O`: the IC50 entry (in test [1]; against Neuraminidase (hek293)) was “Not Active” in each case.
